What was measured:
786-0 CCRCC cells = test: ICP-MS of cellular iron, zinc and copper; type: cell-based, human; conditions: 786-0 cells, 24 hours, 1.5 μM KD002 or KD021, 2.5 μM KD025HCl, versus DMSO
Protocol: These studies were performed to determine the content of iron and other transition metals in cells after exposure the compounds described herein. 786-0 cells were seeded at 1.5 million cells/flask in T75 cm^2 flasks in DMEM+10% FBS, and allowed to adhere overnight. Cells were then treated with indicated concentrations of compounds in DMSO or DMSO alone (vehicle) for a further 24 hours, after which cells were detached by trypsinization, counted, washed twice in PBS and pelleted. Experiments were performed using three replicate T75 cm^2 flasks per condition. A 5:1 mixture of nitric acid (OPTIMA Grade, 70%, Fisher Scientific) and ultrapure hydrogen peroxide (ULTREX II, 30%, Fisher Scientific) was added to cell pellets. This mixture was allowed to digest overnight, heated until dry, and resuspended in 2% nitric acid for analysis using an Agilent 7900 ICP-MS (Agilent Technologies, Santa Clara, Calif.). Calibration standard solutions for determination of Fe were prepared from Agilent multi-element calibration standard-2A. An Agilent Environmental Calibration Standard was used as an independent control. PBS-only control digestions were used to measure background. Metal readings were normalized to cell number. Data obtained from these studies for three replicate readings (with SEM) are shown in FIG. 4, which show an increase in cellular iron (Fe) content after treatment with indicated compounds.

GPX4 = test: Western blot of treated 786-0 cells: GPX4; type: cell-based, human; conditions: higher concentrations of compound, FIG. 4 Part D
Protocol: Western blots were performed to determine the effects of the compounds on levels of HIF-2α and other relevant proteins. 786-0 (pVHL deficient clear cell kidney cancer cells) were purchased from ATCC were plated at 1×10E5 cells/well in 2 ml DMEM with 10% FBS/well in 6-well tissue culture plates. Cells were allowed to adhere overnight in a humidified incubator at 37° C. with 5% CO2, after which the appropriate concentrations of compounds in DMSO were added. DMSO concentrations were kept constant in all wells. After 24 hour's exposure to the compounds, cells were lysed and subjected to western blotting according to standard protocols (Polek, Talpaz et al. 2003). Antibodies for HIF-2α and Glyceraldehyde 3-Phosphate Dehydrogenase (GAPDH) were purchased from Cell Signaling Technology (Danvers, Mass.), whereas antibodies to iron responsive element binding protein 2 (IRP2) and Glutathione Peroxidase 4 (GPX4) were from Santa Cruz Biotechnology (Dallas, Tex.) and R&D Systems, Inc (Minneapolis, Minn.). Representative data in FIG. 3 show a dose-dependent effect of compounds in decreasing HIF-2α. Compounds also impact cellular iron sensing given by increased IRP2, which taken together indicate that cells sense decreased amounts of available iron. Representative data shown in FIG. 5 Part C show a dose dependent effect of the compounds on GPX4, which may indicate decreased resistance to ferroptosis.

SMILES: COc1ccc(-c2nnc(Nc3nc4c(OC)nccc4[nH]3)o2)cc1OC [KD025HCl, N-(4-Methoxy-1H-imidazo[4,5-c]pyridin-2-yl)-5-(3,4-dimethoxyphenyl)-1,3,4-oxadiazol-2-amine]
- cellular copper (Cu) content (ICP-MS) (786-0 CCRCC cells): increases
- cellular iron (Fe) content (ICP-MS) (786-0 CCRCC cells): increases
- cellular zinc (Zn) content (ICP-MS) (786-0 CCRCC cells): increases
- GPX4 protein (western blot) (GPX4): decrease
